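Briefly, cells in 96-well plates were exposed to five compound concentrations for 48 h, and endpoints were estimated by linear interpolation. TGI marks complete inhibition of growth.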
Legend:
Assay in all cases: NCI-60 cell line screen, 48 h
CCRF-CEM leukemia = tested on: CCRF-CEM leukemia
SNB-19 CNS = tested on: SNB-19 CNS
MOLT-4 leukemia = tested on: MOLT-4 leukemia
UACC-257 melanoma = tested on: UACC-257 melanoma
KM12 colon = tested on: KM12 colon
A549 NSCLC = tested on: A549 NSCLC
CAKI-1 renal = tested on: CAKI-1 renal
COLO 205 colon = tested on: COLO 205 colon
NCI-H23 lung = tested on: NCI-H23 lung
UACC-62 melanoma = tested on: UACC-62 melanoma
MDA-MB-435 = tested on: MDA-MB-435
HCC-2998 colon = tested on: HCC-2998 colon
786-0 renal = tested on: 786-0 renal
MALME-3M melanoma = tested on: MALME-3M melanoma
OVCAR-5 ovarian = tested on: OVCAR-5 ovarian
EKVX NSCLC = tested on: EKVX NSCLC
TK-10 renal = tested on: TK-10 renal
SW-620 colon = tested on: SW-620 colon
HL-60(TB) leukemia = tested on: HL-60(TB) leukemia
HOP-62 NSCLC = tested on: HOP-62 NSCLC
HCT-15 colon = tested on: HCT-15 colon
BT-549 breast = tested on: BT-549 breast
NCI-H226 lung = tested on: NCI-H226 lung
T-47D breast = tested on: T-47D breast
MDA-MB-231 breast = tested on: MDA-MB-231 breast
UO-31 renal = tested on: UO-31 renal
RXF 393 renal = tested on: RXF 393 renal
IGROV1 ovarian = tested on: IGROV1 ovarian
SF-539 CNS = tested on: SF-539 CNS
SN12C renal = tested on: SN12C renal
NCI/ADR-RES ovarian = tested on: NCI/ADR-RES ovarian
SK-MEL-28 melanoma = tested on: SK-MEL-28 melanoma
OVCAR-4 ovarian = tested on: OVCAR-4 ovarian
DU-145 prostate = tested on: DU-145 prostate
SK-MEL-5 melanoma = tested on: SK-MEL-5 melanoma
SR leukemia = tested on: SR leukemia
A498 renal = tested on: A498 renal
SK-OV-3 ovarian = tested on: SK-OV-3 ovarian
U251 CNS = tested on: U251 CNS
LOX IMVI melanoma = tested on: LOX IMVI melanoma
NCI-H460 lung = tested on: NCI-H460 lung
SF-295 CNS = tested on: SF-295 CNS
K-562 leukemia = tested on: K-562 leukemia
NCI-H522 lung = tested on: NCI-H522 lung
RPMI-8226 leukemia = tested on: RPMI-8226 leukemia
MCF7 breast = tested on: MCF7 breast
PC-3 prostate = tested on: PC-3 prostate
SK-MEL-2 melanoma = tested on: SK-MEL-2 melanoma
SNB-75 CNS = tested on: SNB-75 CNS
HOP-92 NSCLC = tested on: HOP-92 NSCLC
SF-268 CNS = tested on: SF-268 CNS
ACHN renal = tested on: ACHN renal
M14 melanoma = tested on: M14 melanoma
HCT-116 colon = tested on: HCT-116 colon
OVCAR-3 ovarian = tested on: OVCAR-3 ovarian
HT29 colon = tested on: HT29 colon
MDA-N = tested on: MDA-N
OVCAR-8 ovarian = tested on: OVCAR-8 ovarian
HS 578T breast = tested on: HS 578T breast

COc1ccc2c(c1)NC1(CCN(CCCC(=O)c3ccc(F)cc3)CC1)N=N2
TGI (CCRF-CEM leukemia): 58.5 µM
TGI (SNB-19 CNS): > 100 µM
TGI (MOLT-4 leukemia): 41.4 µM
TGI (UACC-257 melanoma): 46.1 µM
TGI (KM12 colon): 41 µM
TGI (A549 NSCLC): > 100 µM
TGI (CAKI-1 renal): 90.6 µM
TGI (COLO 205 colon): 27.8 µM
TGI (NCI-H23 lung): 97.7 µM
TGI (UACC-62 melanoma): 41.6 µM
TGI (MDA-MB-435): 31.4 µM
TGI (HCC-2998 colon): 28.2 µM
TGI (786-0 renal): 36.9 µM
TGI (MALME-3M melanoma): 30.6 µM
TGI (OVCAR-5 ovarian): 61.1 µM
TGI (EKVX NSCLC): > 100 µM
TGI (TK-10 renal): 62.2 µM
TGI (SW-620 colon): 57.9 µM
TGI (HL-60(TB) leukemia): 32.8 µM
TGI (HOP-62 NSCLC): 60.3 µM
TGI (HCT-15 colon): 52.4 µM
TGI (BT-549 breast): 74.7 µM
TGI (NCI-H226 lung): 95.6 µM
TGI (T-47D breast): 53.5 µM
TGI (MDA-MB-231 breast): 45.7 µM
TGI (UO-31 renal): 57.8 µM
TGI (RXF 393 renal): 55.1 µM
TGI (IGROV1 ovarian): 64 µM
TGI (SF-539 CNS): 35.9 µM
TGI (SN12C renal): 64.4 µM
TGI (NCI/ADR-RES ovarian): > 100 µM
TGI (SK-MEL-28 melanoma): 37 µM
TGI (OVCAR-4 ovarian): > 100 µM
TGI (DU-145 prostate): 46.8 µM
TGI (SK-MEL-5 melanoma): 25.3 µM
TGI (SR leukemia): 35.4 µM
TGI (A498 renal): 76.7 µM
TGI (SK-OV-3 ovarian): > 100 µM
TGI (U251 CNS): 48.6 µM
TGI (LOX IMVI melanoma): 35.3 µM
TGI (NCI-H460 lung): 93.5 µM
TGI (SF-295 CNS): 46.3 µM
TGI (K-562 leukemia): 41 µM
TGI (NCI-H522 lung): 33.9 µM
TGI (RPMI-8226 leukemia): 42.2 µM
TGI (MCF7 breast): 40.5 µM
TGI (PC-3 prostate): > 100 µM
TGI (SK-MEL-2 melanoma): 39.8 µM
TGI (SNB-75 CNS): 39.8 µM
TGI (HOP-92 NSCLC): > 100 µM
TGI (SF-268 CNS): > 100 µM
TGI (ACHN renal): > 100 µM
TGI (M14 melanoma): 26.6 µM
TGI (HCT-116 colon): 36 µM
TGI (OVCAR-3 ovarian): 53.5 µM
TGI (HT29 colon): 69.4 µM
TGI (MDA-N): 31.6 µM

Nc1ccc(COC(O)CN2CCCCC2)cc1[N+](=O)[O-] (stereo unspecified)
TGI (CCRF-CEM leukemia): > 100 µM
TGI (SNB-19 CNS): > 100 µM
TGI (MOLT-4 leukemia): > 100 µM
TGI (UACC-257 melanoma): > 100 µM
TGI (KM12 colon): > 100 µM
TGI (A549 NSCLC): > 100 µM
TGI (CAKI-1 renal): > 100 µM
TGI (COLO 205 colon): > 100 µM
TGI (NCI-H23 lung): > 100 µM
TGI (UACC-62 melanoma): > 100 µM
TGI (MDA-MB-435): > 100 µM
TGI (HCC-2998 colon): > 100 µM
TGI (786-0 renal): > 100 µM
TGI (MALME-3M melanoma): > 100 µM
TGI (OVCAR-5 ovarian): > 100 µM
TGI (TK-10 renal): > 100 µM
TGI (SW-620 colon): > 100 µM
TGI (HL-60(TB) leukemia): > 100 µM
TGI (HCT-15 colon): > 100 µM
TGI (BT-549 breast): > 100 µM
TGI (NCI-H226 lung): > 100 µM
TGI (T-47D breast): > 100 µM
TGI (MDA-MB-231 breast): > 100 µM
TGI (UO-31 renal): > 100 µM
TGI (RXF 393 renal): > 100 µM
TGI (IGROV1 ovarian): > 100 µM
TGI (SF-539 CNS): > 100 µM
TGI (SN12C renal): > 100 µM
TGI (NCI/ADR-RES ovarian): > 100 µM
TGI (SK-MEL-28 melanoma): > 100 µM
TGI (OVCAR-4 ovarian): > 100 µM
TGI (DU-145 prostate): > 100 µM
TGI (SK-MEL-5 melanoma): > 100 µM
TGI (SR leukemia): > 100 µM
TGI (A498 renal): > 100 µM
TGI (U251 CNS): > 100 µM
TGI (NCI-H460 lung): > 100 µM
TGI (SF-295 CNS): > 100 µM
TGI (K-562 leukemia): > 100 µM
TGI (NCI-H522 lung): > 100 µM
TGI (RPMI-8226 leukemia): > 100 µM
TGI (MCF7 breast): > 100 µM
TGI (PC-3 prostate): > 100 µM
TGI (SK-MEL-2 melanoma): > 100 µM
TGI (SNB-75 CNS): > 100 µM
TGI (HOP-92 NSCLC): > 100 µM
TGI (SF-268 CNS): > 100 µM
TGI (ACHN renal): > 100 µM
TGI (M14 melanoma): > 100 µM
TGI (OVCAR-8 ovarian): > 100 µM
TGI (HCT-116 colon): > 100 µM
TGI (OVCAR-3 ovarian): > 100 µM
TGI (HT29 colon): > 100 µM
TGI (MDA-N): > 100 µM

COC(=O)c1ccccc1/C=C1\Cc2ccc3c(c2C1=O)CCCC3
TGI (CCRF-CEM leukemia): > 100 µM
TGI (SNB-19 CNS): > 100 µM
TGI (MOLT-4 leukemia): > 100 µM
TGI (UACC-257 melanoma): > 100 µM
TGI (KM12 colon): > 100 µM
TGI (A549 NSCLC): > 100 µM
TGI (CAKI-1 renal): > 100 µM
TGI (COLO 205 colon): > 100 µM
TGI (NCI-H23 lung): > 100 µM
TGI (UACC-62 melanoma): > 100 µM
TGI (MDA-MB-435): > 100 µM
TGI (HCC-2998 colon): > 100 µM
TGI (786-0 renal): > 100 µM
TGI (MALME-3M melanoma): > 100 µM
TGI (OVCAR-5 ovarian): > 100 µM
TGI (EKVX NSCLC): > 100 µM
TGI (TK-10 renal): > 100 µM
TGI (SW-620 colon): > 100 µM
TGI (HOP-62 NSCLC): > 100 µM
TGI (HCT-15 colon): > 100 µM
TGI (BT-549 breast): > 100 µM
TGI (NCI-H226 lung): > 100 µM
TGI (T-47D breast): > 100 µM
TGI (MDA-MB-231 breast): > 100 µM
TGI (UO-31 renal): > 100 µM
TGI (IGROV1 ovarian): > 100 µM
TGI (SF-539 CNS): > 100 µM
TGI (SN12C renal): > 100 µM
TGI (NCI/ADR-RES ovarian): > 100 µM
TGI (SK-MEL-28 melanoma): > 100 µM
TGI (OVCAR-4 ovarian): > 100 µM
TGI (DU-145 prostate): > 100 µM
TGI (SR leukemia): > 100 µM
TGI (A498 renal): > 100 µM
TGI (SK-OV-3 ovarian): > 100 µM
TGI (U251 CNS): > 100 µM
TGI (LOX IMVI melanoma): > 100 µM
TGI (NCI-H460 lung): > 100 µM
TGI (SF-295 CNS): > 100 µM
TGI (K-562 leukemia): > 100 µM
TGI (HS 578T breast): > 100 µM
TGI (NCI-H522 lung): > 100 µM
TGI (RPMI-8226 leukemia): > 100 µM
TGI (MCF7 breast): > 100 µM
TGI (PC-3 prostate): > 100 µM
TGI (SK-MEL-2 melanoma): > 100 µM
TGI (SNB-75 CNS): > 100 µM
TGI (SF-268 CNS): > 100 µM
TGI (ACHN renal): > 100 µM
TGI (M14 melanoma): > 100 µM
TGI (OVCAR-8 ovarian): > 100 µM
TGI (HCT-116 colon): > 100 µM
TGI (OVCAR-3 ovarian): > 100 µM
TGI (HT29 colon): > 100 µM
TGI (MDA-N): > 100 µM

— PubChem BioAssay (NCI)
